Results on two compounds are retold here after patent US6166085A, “Method of producing analgesia” (priority 1996, dated 2000).

For data set [1], the system named is sciatic nerve compound action potential. Description: Rat sciatic nerve compound action potential in vivo, direct application. As to conditions: for blockade of sciatic nerve compound action potential (in words): direct application, metabolites 5 mg, 10 min. Also on record: species or system Harlan Sprague Dawley rats. On the procedure:
Male Harlan Sprague Dawley rats (300-350 g) were anesthetized with pentobarbital/diazepam. The sciatic nerves were sequentially and bilaterally exposed by sharp/blunt dissection from the popliteal region proximally. Electrodes were placed at the sciatic notch (stimulating), and the interossei (recording); a grounding electrode was applied remote from the field. Baseline compound action potential (CAP) (A alpha/beta) wave heights (mV) in response to stimulation 1× per minute were recorded for ten minutes to obtain a stable reference. One drug/vehicle solution was applied per nerve, at mid-nerve (mid-thigh) level, in a volume of 250 μl, and compound action potential wave height then was recorded 1× per minute for ten minutes after application.

A further data set relates to mechanical allodynia. As to the kind of experiment: Mechanical allodynia in rat model of peripheral neuropathy (L5/L6 spinal nerve ligation), intrathecal, Example 2. The class given is in vivo, Sprague-Dawley rats. As to conditions: for effect on mechanical allodynia (50% response threshold), 0.6 μmol: 0.6 μmol intrathecal. The procedure:
Experiments carried out in support of the present invention were performed in a rat model of peripheral neuropathy detailed in Example 2. Briefly, in the model used, rats are subjected to a surgical procedure, described by Kim and Chung (1992), designed to reproducibly injure peripheral nerves (spinal nerves L5 and L6). These rats develop a hyperesthetic state, which can be measured using one or more paradigms known in the art. Here, allodynia was measured by stimulation of neuropathic rat hindlimb using wire hairs having graded degrees of stiffness.
[…]. Test solutions at pH 6.58 were administered intrathecally as described above. Mechanical allodynia was measured by pressing nylon filaments of varying diameters against the paw. Data are expressed in terms of 50% response threshold, which is the median buckling weight required to evoke paw withdrawal; the lower the stimulus level, the more severe the allodynia.
Male Sprague-Dawley rats (200-350 gm) were prepared with chronic lumbar intrathecal catheters inserted under halothane anesthesia (Yaksh and Rudy). Animals were placed in a prone position and the left paraspinal muscles were separated from the spinous processes at the L4 -S2 levels, as described by Kim et al. The left L5 and L6 nerve roots were exposed and tightly ligated with 6-0 surgical silk suture. The rats were allowed to recover from anesthesia. Allodynia was typically observed to occur beginning 1-2 days post surgery and continuing for as long as 45 days. For testing, animals were placed in plastic cubicles with open wire mesh bottoms. Compound dissolved in preservative-free saline solution was administered in a volume of 10 μl through the intrathecal catheter, followed by 10 μl saline to flush the catheter line. Animals were tested for allodynia at various time points after drug treatment, as described below.
To assess the threshold of a non-noxious stimulus required to produce a left hind paw withdrawal (allodynia), Von Frey hairs (ranging from 0.4-15 grams), were systematically applied to the surgically treated hind paw. Failure to evoke a response was cause to test the next stiffer hair. Evocation of a brisk withdrawal response was cause to test the next lower stimulus intensity. This paradigm was repeated according to a statistical method (Dixon, 1976) to define the 50% response threshold.
Data in FIG. 6 are expressed in terms of 50% response threshold, which is the median buckling weight required to evoke paw withdrawal; the lower the stimulus level, the more severe the allodynia. Allodynia thresholds, measured 30 minutes after injection, were plotted against dosage. Each point represents a value for a single animal.

Data set [2] is described as follows: Observation of motor dysfunction and overt behavior / side effects. It is filed as in vivo, Sprague-Dawley rats. As to conditions: for overt changes in behavior / adverse side effects, formalin test: formalin test studies; for overt changes in behavior / adverse side effects, formalin test / adverse side effects, neuropathy model: intrathecal; for adverse side effects, neuropathy model: neuropathic rats, 3-hydroxy MEGX 0.3 and 0.6 μmol, lidocaine 0.6 μmol. The text has this:
Animals were also observed for the appearance of general motor dysfunction,as evidenced by inability to ambulate symmetrically and for any other overt signs of unusual activity.

The test system of another data set is allodynia. Description: Tactile allodynia (paw withdrawal threshold, % MPE) in L5/L6 spinal nerve ligated rats, Example 3. The class given is in vivo, Harlan Sprague-Dawley rats. On the procedure: Male Harlan Sprague-Dawley rats were used (100-200 g). Rats were housed 2-3 to a cage with corn cob bedding and Purina rat chow and water ad libitum, in a standard facility with a 12 h/12 h day/night cycle. After surgical procedures involving chronic indwelling catheter insertion, animals were housed singly to prevent catheter damage.
Rats were allowed to recover 5-7 days before further testing or surgeries.
The catheters were 9 cm in intrathecal length and terminated near the lumbar enlargement. The rostral 3 cm of catheter was tunneled under the skin to externalize between the ears. Rats with neurologic deficits were discarded.
For intravascular access, external jugular catheters were fashioned from PE-50 tubing and inserted into an external jugular vein under halothane/oxygen anesthesia. Arterial catheters were also fashioned from PE-50 with a small bouton 1 cm from the intravascular end for suture securing; they were inserted into a carotid artery, taking care to spare the surrounding nerves. All catheters were flushed with heparinized saline (10 U/ml) and tunneled subcutaneously to emerge at the posterior base of the neck, and capped when not in use.
Monoethylglycinexylidide (MEGX) and 3-hydroxy monoethyl-glycinexylidide (3-OH MEGX) were dissolved in physiologic saline; 3-hydroxylidocaine (3-OH L) was dissolved in DMSO for intravenous administration.
Intravenous drugs were delivered to awake, unrestrained rats by slow infusion using a syringe pump (Harvard apparatus 22). Intrathecal drugs were delivered to awake, briefly restrained rats in a volume of 10 μl, followed by 10 μl of vehicle flush, using a calibrated tubing extension with a 30-gauge adapter fitting the implanted intrathecal catheter, attached to a geared Hamilton 100 μl glass syringe. IT drug delivery was monitored by observing the advancement of a small air bubble down the tubing.
Rats were placed in a plastic cage with an open wire mesh bottom and allowed to accommodate for approximately fifteen minutes. […] In brief, von Frey hairs were sequentially applied using an up-and-down paradigm to the left mid-plantar hindpaw with sufficient force to cause slight filament buckling. Positive responses were noted if the paw was sharply withdrawn. […] Otherwise, PWT were calculated by noting the stimulus level at which the first change in behavior occurred, collecting four additional responses to the continued up-and-down oscillation of stimulus presentation around the response threshold, and interpolating the 50% response threshold. For some comparisons, raw thresholds were converted to percent of maximum possible effect (% MPE), designating pre-treatment PWT (baselines) as 0% effect, and assigning a cutoff value of 100% effect to thresholds ≥15 g: therefore, % MPE values near 100 indicate normal mechanical thresholds (i.e., at or near 15 g), whereas values near 0 indicate allodynia. The following equation was used to compute % MPE:
% MPE=new threshold(g)-baseline threshold(g)×100/ 15 grams--baseline
Plasma drug levels and PWT were correlated using linear regression. Serially measured PWT and % MPE were compared using repeated measures ANOVA with post-hoc testing.

Entries after “also recorded” stand apart in the source; their conditions may differ. A value given as a limit tells only on which side of the number the result lay.

In the case of `CCNCC(=O)Nc1c(C)ccc(O)c1C` [3-hydroxy MEGX, 2-(ethylamino)-N-(3-hydroxy-2,6-dimethylphenyl) acetamide], the “local anesthetic (sodium channel blocking) activity” value in data set [1] (FIG. 12 legend) is “appears to lack local anesthetic (sodium channel blocking) activity altogether”. Also, the “blockade of sciatic nerve compound action potential (in words)” value in data set [1] (lidocaine 2.5 mg) is reported as “no blockade could be obtained”. The “activity in ranking of CAP blockade (Lido>MEGS>3-OH L>>3-OH MEGX=0)” value in data set [1] (metabolites at 5 mg, lidocaine 2.5 mg) was determined as 0. Also, the “effect on mechanical allodynia (50% response threshold), 0.3 μmol” value in the data set with mechanical allodynia (0.3 μmol intrathecal, pH 6.58) was “significant analgesic effects”. Moreover, in the data set with mechanical allodynia (pH 6.58), the “effect on mechanical allodynia (50% response threshold), 0.6 μmol” value was “significant analgesic effects”. In addition, the “time of peak elevation of response (blockade of allodynia)” value in the data set on mechanical allodynia (intrathecal, single bolus, n=6 animals/treatment) fell in the range of 30 to 60 min. For the same compound, the “elevation of threshold response” value in the data set with mechanical allodynia (intrathecal, varying doses, n=6 animals/treatment) is recorded as “resulted in elevation of threshold response”. The “possible maximum duration of effect of a single bolus injection” value in the data set on mechanical allodynia (intrathecal, "possibly up to") was “up to 20 hours”. Further, the “duration of effect of a single bolus injection” value in the data set on mechanical allodynia (intrathecal, lasting in excess of) is over 3 h. Further, the “motor block / motor effects (summary)” value in data set [2] (IT, 3-hydroxy MEGX at effective anti-allodynia dose, MEGX in excess) is given as “did not cause motor block at an effective anti-allodynia dose; also recorded: no evidence of motor effects”. In data set [2], the “overt changes in behavior / adverse side effects, formalin test” value was “produced no overt changes in behavior” and the “adverse side effects, neuropathy model” value is “no observable adverse side effects”. Also, the “suppression of allodynia after IT administration (summary)” value in the data set with allodynia (IT) is listed as “suppressed allodynia after IT administration”. Further, in the data set on allodynia (IT, dose printed 67 μ, P<0.0001), the “MPE, IT 67 μg” value is listed as 63±17%. Further, the “effect on allodynia, IV (in words)” value with allodynia (IV infusion, 20 mg/kg) is listed as “did not show a significant effect in suppressing allodynia”. Further, the “activity as metabolite with regard to allodynia suppression” value in the data set on allodynia (rat, in vivo) is “active metabolite with regard to allodynia suppression”.
With `CCN(CC)CC(=O)Nc1c(C)cccc1C` [lidocaine], the “blockade of sciatic nerve compound action potential (in words)” value in data set [1] (lidocaine 2.5 mg) is “rapid and complete blockade of the sciatic nerve action potential; also recorded: abolished the CAP with ten minutes”. Moreover, the “effect on mechanical allodynia (50% response threshold), 0.6 μmol” value in the data set on mechanical allodynia (pH 6.58) is on record as “did not block mechanical allodynia”. Also, the “duration of motor dysfunction (hindquarter flaccidity / weakness)” value in data set [2] (IT, 500 μg) was “approximately 10 minutes”. Further, the “motor dysfunction, IT (in words)” value in data set [2] (IT, Example 3, lidocaine and MEGX 500 μg, 3-OH L 58 μg (highest dose soluble in vehicle)) is listed as “acute onset of hindquarter flaccidity”. For the same compound, in data set [2], the “overt changes in behavior / adverse side effects, formalin test” value was “transient hindlimb paresis”; the “adverse side effects, neuropathy model” value is “immediate and transient weakness”. In the data set on allodynia (IT, 500 μg, after recovery of motor function), the “effect on allodynia / PWT, IT 500 μg (in words)” value is recorded as “no effect on allodynia was seen”.
